The term IC50 denotes the point on the concentration scale where inhibition reaches its midpoint.

SMILES strings stand for the structures. Where a name gives a salt, the structure may show the parent alone. Read-outs that look alike come from different tables or passages of the source.

Common to all, as to type: cell-based
In experiment [1] the target is EGFR (A767_dupASV) expressing Ba/F3 stable cell line (Homo sapiens, UniProt P00533, DUP767-769, cells depend on it). Put plainly: Cellular proliferation (Alamar Blue) assay, EGFR A767_dupASV Ba/F3. The note with it: 72 hr, read-out: A767 IC50. Summed up:
(§1)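 Steps: plate 15,000 Ba/F3 cells/well in RPMI/10% FBS; rest 16-18 h, 37 °C; add compound at final 10-0.0005 μM (3-fold series) or DMSO; incubate 72 hr; add Alamar Blue; read after 3 h.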

The target of experiment [2] is EGFR(D770_N771insSVD) expressing Ba/F3 stable cell line (Homo sapiens, UniProt P00533, DUP768-770, cells depend on it). Put plainly: Cellular proliferation (Alamar Blue) assay, EGFR D770_N771insSVD Ba/F3. The note with it: 72 hr, read-out: D770 IC50. Summed up:
as §1
(In general: Resazurin is reduced to fluorescent resorufin, in cell work by metabolically active cells.)

The target in experiment [3] is EGFR (H773insNPH) expressing Ba/F3 stable cell line (Homo sapiens, UniProt P00533, DUP771-773, cells depend on it). Put plainly: Cellular proliferation (Alamar Blue) assay, EGFR H773insNPH Ba/F3. The note with it: 72 hr, read-out: NPH IC50. The protocol:
• 1. EGFR(D770_N771insSVD) expressing Ba/F3 stable cell line • 2. EGFR (A767_dupASV) expressing Ba/F3 stable cell line • 3. A431 cells • 4. EGFR (H773insNPH) expressing Ba/F3 stable cell line • 5. HER2 (A775_G776insYVMA) expressing Ba/F3 stable cell line Assay Procedure: • 1. Seed cells at 5000 for A431 and 15,000 cells for Ba/F3 in 100 μL/well in complete media (for A431: DMEM with […] and for Ba/F3 cells: RPMI with 10% FBS) in 96-well tissue culture plate. Leave outer wells without cells for background measurements. Incubate at 37 degree Celsius in […] humidified incubator for 16-18 hours. • 2. Add 0.025 ml of 5× concentration compound dilution or DMSO control. Final compound concentration range is 10-0.0005 μM prepared in 3-fold serial dilutions. Incubate for 72 hr at 37 degree Celsius in […] humidified incubator. • 3. Add 0.0125 ml Alamar Blue™ reagent to each well with multi-channel pipette and tap gently on each side of the plate to mix. Incubate for 3 hours at 37 degree Celsius in 5% CO2 humidified incubator. • 4. […] Data analysis was performed using XLfit 5.5.0.5.

Experiment [4] has as its system A431 cells. Put plainly: Cellular proliferation (Alamar Blue) assay, A431.
The target of experiment [5] is HER2 (A775_G776insYVMA) expressing Ba/F3 stable cell line (Homo sapiens, UniProt P04626, DUP772-775, cells depend on it). Put plainly: Cellular proliferation (Alamar Blue) assay, HER2 A775_G776insYVMA Ba/F3. Conditions: 72 hr, read-out: YVMA IC50. Summed up: as §1
The mark [6] stands for this setting: Homo sapiens, A-431; A431 cells, Alamar Blue, 72 hr; read-out: A431 IC50.
Where [7] appears, read: Homo sapiens, A-431; A431 cells, 72 hr, Alamar Blue; read-out: A431 IC50.

Chain of EGFR (A767_dupASV) expressing Ba/F3 stable cell line (P00533 with tags, fused parts or gaps DUP767-769): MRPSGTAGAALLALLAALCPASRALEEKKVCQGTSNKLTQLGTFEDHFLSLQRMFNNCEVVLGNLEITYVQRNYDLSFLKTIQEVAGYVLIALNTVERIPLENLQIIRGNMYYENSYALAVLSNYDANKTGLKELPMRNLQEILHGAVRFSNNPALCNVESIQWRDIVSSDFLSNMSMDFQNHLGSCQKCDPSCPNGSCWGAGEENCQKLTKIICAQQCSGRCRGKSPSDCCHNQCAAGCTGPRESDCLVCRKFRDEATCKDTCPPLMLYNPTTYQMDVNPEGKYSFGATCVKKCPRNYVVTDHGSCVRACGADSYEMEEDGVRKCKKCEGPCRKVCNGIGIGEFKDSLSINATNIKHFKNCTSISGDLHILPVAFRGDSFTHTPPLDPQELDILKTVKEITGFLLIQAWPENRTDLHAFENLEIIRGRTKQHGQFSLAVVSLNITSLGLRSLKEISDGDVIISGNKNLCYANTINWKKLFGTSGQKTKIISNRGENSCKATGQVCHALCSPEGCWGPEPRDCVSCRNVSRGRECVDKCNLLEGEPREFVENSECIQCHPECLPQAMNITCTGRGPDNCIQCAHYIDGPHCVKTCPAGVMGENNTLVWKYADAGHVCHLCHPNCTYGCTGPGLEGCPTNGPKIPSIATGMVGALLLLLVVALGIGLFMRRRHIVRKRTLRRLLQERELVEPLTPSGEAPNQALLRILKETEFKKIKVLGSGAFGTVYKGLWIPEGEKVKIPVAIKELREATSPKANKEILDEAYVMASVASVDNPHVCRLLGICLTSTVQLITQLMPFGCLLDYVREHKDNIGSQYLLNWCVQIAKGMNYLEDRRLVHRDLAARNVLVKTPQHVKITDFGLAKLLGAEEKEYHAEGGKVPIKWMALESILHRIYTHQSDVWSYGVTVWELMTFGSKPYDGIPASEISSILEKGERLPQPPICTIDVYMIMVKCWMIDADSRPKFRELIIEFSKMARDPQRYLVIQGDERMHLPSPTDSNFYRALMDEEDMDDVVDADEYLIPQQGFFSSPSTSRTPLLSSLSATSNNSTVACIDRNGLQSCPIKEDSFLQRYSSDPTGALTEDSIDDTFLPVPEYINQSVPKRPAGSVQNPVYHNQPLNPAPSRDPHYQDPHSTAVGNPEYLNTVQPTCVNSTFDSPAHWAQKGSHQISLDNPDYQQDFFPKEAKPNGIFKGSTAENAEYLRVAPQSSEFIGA
Chain of EGFR(D770_N771insSVD) expressing Ba/F3 stable cell line (P00533 with tags, fused parts or gaps DUP768-770): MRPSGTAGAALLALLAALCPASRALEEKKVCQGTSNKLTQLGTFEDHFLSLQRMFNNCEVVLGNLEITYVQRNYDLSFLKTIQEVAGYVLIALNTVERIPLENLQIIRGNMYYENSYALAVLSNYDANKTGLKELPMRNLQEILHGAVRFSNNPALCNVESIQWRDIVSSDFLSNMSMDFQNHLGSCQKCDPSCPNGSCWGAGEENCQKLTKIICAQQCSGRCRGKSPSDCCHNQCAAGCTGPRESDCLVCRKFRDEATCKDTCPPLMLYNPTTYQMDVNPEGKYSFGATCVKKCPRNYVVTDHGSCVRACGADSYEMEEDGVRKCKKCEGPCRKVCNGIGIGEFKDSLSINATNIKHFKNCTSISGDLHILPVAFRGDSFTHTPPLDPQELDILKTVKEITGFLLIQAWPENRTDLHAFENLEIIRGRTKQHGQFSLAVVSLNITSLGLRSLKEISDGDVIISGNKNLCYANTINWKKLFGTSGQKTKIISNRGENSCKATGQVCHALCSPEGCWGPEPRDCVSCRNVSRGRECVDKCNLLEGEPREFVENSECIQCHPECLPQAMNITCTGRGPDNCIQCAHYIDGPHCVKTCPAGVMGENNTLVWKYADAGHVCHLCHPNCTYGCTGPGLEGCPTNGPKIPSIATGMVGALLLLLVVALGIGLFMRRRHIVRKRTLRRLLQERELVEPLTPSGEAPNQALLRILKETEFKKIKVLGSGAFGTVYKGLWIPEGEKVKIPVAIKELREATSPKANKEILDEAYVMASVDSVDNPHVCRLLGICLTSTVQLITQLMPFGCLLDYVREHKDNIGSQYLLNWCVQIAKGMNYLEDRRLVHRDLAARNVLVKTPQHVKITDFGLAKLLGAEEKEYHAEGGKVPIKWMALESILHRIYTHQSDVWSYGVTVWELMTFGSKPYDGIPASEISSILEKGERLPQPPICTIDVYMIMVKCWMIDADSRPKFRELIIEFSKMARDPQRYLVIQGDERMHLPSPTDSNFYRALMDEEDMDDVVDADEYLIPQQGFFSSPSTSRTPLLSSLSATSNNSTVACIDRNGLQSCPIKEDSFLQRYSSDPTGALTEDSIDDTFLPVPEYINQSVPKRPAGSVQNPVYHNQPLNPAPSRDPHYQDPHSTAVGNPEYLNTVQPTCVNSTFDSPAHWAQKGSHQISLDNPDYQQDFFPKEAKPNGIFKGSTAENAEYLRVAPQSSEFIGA
Chain of EGFR (H773insNPH) expressing Ba/F3 stable cell line (P00533 with tags, fused parts or gaps DUP771-773): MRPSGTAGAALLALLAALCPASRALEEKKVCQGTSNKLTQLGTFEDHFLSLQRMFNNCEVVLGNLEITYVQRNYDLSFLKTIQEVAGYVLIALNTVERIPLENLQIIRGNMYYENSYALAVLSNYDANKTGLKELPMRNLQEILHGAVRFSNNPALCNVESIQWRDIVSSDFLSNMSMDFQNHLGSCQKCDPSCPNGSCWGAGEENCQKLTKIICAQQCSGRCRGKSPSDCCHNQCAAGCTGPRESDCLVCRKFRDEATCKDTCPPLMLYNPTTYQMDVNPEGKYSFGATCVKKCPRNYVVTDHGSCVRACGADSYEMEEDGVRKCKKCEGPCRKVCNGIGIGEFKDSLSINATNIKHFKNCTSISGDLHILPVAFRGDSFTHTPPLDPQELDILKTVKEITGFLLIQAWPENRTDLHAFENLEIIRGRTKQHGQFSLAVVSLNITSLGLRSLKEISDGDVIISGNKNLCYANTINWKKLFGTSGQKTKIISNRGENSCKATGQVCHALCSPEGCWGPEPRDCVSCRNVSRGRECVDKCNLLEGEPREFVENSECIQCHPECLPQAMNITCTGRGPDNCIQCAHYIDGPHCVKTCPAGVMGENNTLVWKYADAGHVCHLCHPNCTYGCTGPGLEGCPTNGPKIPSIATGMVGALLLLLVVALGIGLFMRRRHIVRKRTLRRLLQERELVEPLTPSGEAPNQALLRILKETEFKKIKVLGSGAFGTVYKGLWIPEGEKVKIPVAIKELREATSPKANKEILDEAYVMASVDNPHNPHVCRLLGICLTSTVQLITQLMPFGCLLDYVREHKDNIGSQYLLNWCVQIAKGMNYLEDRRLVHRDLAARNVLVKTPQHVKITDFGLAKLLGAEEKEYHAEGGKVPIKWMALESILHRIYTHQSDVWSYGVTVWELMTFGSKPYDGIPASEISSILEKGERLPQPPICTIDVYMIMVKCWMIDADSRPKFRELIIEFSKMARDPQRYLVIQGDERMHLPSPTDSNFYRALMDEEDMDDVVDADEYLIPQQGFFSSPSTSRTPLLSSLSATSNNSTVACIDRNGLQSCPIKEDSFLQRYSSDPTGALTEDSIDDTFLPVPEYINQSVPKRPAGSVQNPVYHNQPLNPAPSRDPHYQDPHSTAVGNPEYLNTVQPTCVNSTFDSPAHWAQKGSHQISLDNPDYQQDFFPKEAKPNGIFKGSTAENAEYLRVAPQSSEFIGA
Chain of HER2 (A775_G776insYVMA) expressing Ba/F3 stable cell line (P04626 with tags, fused parts or gaps DUP772-775): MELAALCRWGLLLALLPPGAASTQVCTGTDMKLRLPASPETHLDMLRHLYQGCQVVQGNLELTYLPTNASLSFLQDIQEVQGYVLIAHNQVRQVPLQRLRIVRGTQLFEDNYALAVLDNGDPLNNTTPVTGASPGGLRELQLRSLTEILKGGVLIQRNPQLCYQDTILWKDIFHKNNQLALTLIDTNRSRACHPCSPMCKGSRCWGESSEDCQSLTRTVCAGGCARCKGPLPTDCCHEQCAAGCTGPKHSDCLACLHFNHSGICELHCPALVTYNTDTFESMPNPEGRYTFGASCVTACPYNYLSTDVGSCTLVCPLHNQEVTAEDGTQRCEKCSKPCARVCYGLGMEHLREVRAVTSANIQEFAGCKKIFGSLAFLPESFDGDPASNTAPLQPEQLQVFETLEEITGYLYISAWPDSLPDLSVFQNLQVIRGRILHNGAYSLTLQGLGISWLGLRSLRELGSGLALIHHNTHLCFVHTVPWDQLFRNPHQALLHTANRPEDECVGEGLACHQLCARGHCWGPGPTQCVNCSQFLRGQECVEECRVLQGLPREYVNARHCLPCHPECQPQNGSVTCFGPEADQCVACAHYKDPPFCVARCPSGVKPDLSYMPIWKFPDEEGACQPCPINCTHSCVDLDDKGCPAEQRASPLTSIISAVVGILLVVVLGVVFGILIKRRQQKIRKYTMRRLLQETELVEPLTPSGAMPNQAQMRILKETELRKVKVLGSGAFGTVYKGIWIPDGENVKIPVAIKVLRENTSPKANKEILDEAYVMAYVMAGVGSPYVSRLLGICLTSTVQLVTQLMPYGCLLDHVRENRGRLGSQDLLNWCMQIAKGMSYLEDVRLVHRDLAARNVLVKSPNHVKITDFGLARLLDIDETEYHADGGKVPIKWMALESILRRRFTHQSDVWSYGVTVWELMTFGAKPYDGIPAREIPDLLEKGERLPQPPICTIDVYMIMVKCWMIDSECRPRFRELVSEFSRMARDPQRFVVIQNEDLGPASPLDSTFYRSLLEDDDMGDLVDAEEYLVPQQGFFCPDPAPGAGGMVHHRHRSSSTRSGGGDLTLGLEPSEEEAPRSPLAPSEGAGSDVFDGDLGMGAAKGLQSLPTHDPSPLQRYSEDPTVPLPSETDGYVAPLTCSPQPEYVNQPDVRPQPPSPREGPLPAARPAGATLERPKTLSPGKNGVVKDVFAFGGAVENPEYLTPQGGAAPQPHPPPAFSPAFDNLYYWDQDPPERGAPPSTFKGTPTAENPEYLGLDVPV

For `C=CC(=O)Nc1ccc(F)c(Nc2nc(Nc3ccc(OC)nc3)ncc2Cl)c1` [Compound 22, N-(3-((5-chloro-2-((6-methoxypyridin-3-yl)amino)pyrimidin-4-yl)amino)-4-fluorophenyl)acrylamide], the GI50 in experiment [1] amounted to 3000 nM; in experiment [2], 7.95 µM; in experiment [3] it was 4740 nM. The IC50 in experiment [4] (setting [6]) came out at 7.1 µM.
In the case of `C=C(F)C(=O)Nc1ccc(F)c(Nc2nc(Nc3cnn(C)c3)ncc2Cl)c1` [Compound 23, N-(3-((5-chloro-2-((1-methyl-1H-pyrazol-4-yl)amino)pyrimidin-4-yl)amino)-4-fluorophenyl)-2-fluoroacrylamide], the GI50 in experiment [1] was 9920 nM; in experiment [2], greater than 10 µM; in experiment [3] it was 4470 nM. Further, the IC50 in experiment [4] (setting [6]) was greater than 10 µM.
On to `C=C(F)C(=O)NC1CCCC(Nc2nc(Nc3cnn(C)c3)ncc2Cl)C1` (stereo not drawn) [Compound 24], for which the GI50 was greater than 10000 nM in experiment [1], greater than 10 µM in experiment [2] and 4130 nM in experiment [3]. Moreover, the IC50 in experiment [4] (setting [6]) is greater than 10 µM.
With `C=C(F)C(=O)N1CCCC(Nc2nc(Nc3cnn(C)c3)ncc2Cl)C1` (stereo not drawn) [Compound 25, 1-(3-((5-chloro-2-((1-methyl-1H-pyrazol-4-yl)amino)pyrimidin-4-yl)amino)piperidin-1-yl)-2-fluoroprop-2-en-1-one], the GI50 is greater than 10000 nM in experiment [1], greater than 10 µM in experiment [2] and greater than 10000 nM in experiment [3]. The IC50 in experiment [4] (setting [6]) is greater than 10 µM.
With `C=CC(=O)Nc1ccc(F)c(Nc2nc(Nc3cnn(CC(C)(C)O)c3)ncc2Cl)c1` [Compound 26, N-(3-((5-chloro-2-((1-(2-hydroxy-2-methylpropyl)-1H-pyrazol-4-yl)amino)pyrimidin-4-yl)amino)-4-fluorophenyl)acrylamide], the GI50 in experiment [1] is 2450 nM; in experiment [2], 4.86 µM; in experiment [3], 2090 nM. Besides, in experiment [4] (setting [6]), the IC50 was determined as 7.41 µM.
`C=CC(=O)Nc1cccc(Nc2nc(Nc3cnn(C)c3)ncc2NC(=O)c2ccccc2)c1` [Compound 28, N-(4-((3-acrylamidophenyl)amino)-2-((1-methyl-1H-pyrazol-4-yl)amino)pyrimidin-5-yl)benzamide]: the figures for the GI50 in experiment [1], in experiment [2] and in experiment [3] were 2240 nM, 3.13 µM and 3010 nM, respectively. Further, the IC50 in experiment [4] (setting [6]) was greater than 10 µM.
On to `C=CC(=O)Nc1cccc(Nc2nc(Nc3cnn(C)c3)ncc2C(=O)NC(C)c2ccccc2)c1` (stereo not drawn) [Compound 34, 4-((3-acrylamidophenyl)amino)-2-((1-methyl-1H-pyrazol-4-yl)amino)-N-(1-phenylethyl)pyrimidine-5-carboxamide], for which the values for the GI50 in experiment [1], in experiment [2] and in experiment [3] were 9310 nM, 9.52 µM and greater than 10000 nM, respectively. Besides, in experiment [4] (setting [6]), the IC50 is greater than 10 µM.
For `COc1cc(N2CCCCC2)ccc1Nc1ncc(C(=O)N(C)c2ccccc2)c(Nc2cccc(NC(=O)/C=C/CN(C)C)c2)n1` [Compound 52, (E)-4-((3-(4-(dimethylamino)but-2-enamido)phenyl)amino)-2-((2-methoxy-4-(piperidin-1-yl)phenyl)amino)-N-methyl-N-phenylpyrimidine-5-carboxamide], in that order: 982 nM, 3.26 µM, greater than 10000 nM and 6.56 µM.
On to `CN(C)C/C=C/C(=O)Nc1cccc(Nc2nc(Nc3cn(C)nc3Cl)ncc2-c2ccc(C(F)(F)F)cc2)c1` [Compound 53, (E)-N-(3-((2-((3-chloro-1-methyl-1H-pyrazol-4-yl)amino)-5-(4-(trifluoromethyl)phenyl)pyrimidin-4-yl)amino)phenyl)-4-(dimethylamino)but-2-enamide], for which the GI50 is 1020 nM in experiment [1], 0.873 µM in experiment [2] and 1890 nM in experiment [3]. For the same molecule, in experiment [4] (setting [6]), the IC50 turned out to be 7.29 µM.
On to `CN(C)C/C=C/C(=O)Nc1cccc(Nc2nc(Nc3cn(C)nc3Cl)ncc2C(F)(F)F)c1` [Compound 54, (E)-N-(3-((2-((3-chloro-1-methyl-1H-pyrazol-4-yl)amino)-5-(trifluoromethyl)pyrimidin-4-yl)amino)phenyl)-4-(dimethylamino)but-2-enamide], for which the GI50 in experiment [1] was determined as 1040 nM; in experiment [2] it was 0.296 µM; in experiment [3], 380 nM. The IC50 in experiment [4] (setting [6]) was 4.53 µM.
As for `C=CC(=O)Nc1ccc(F)c(Nc2nc(Nc3cnn(C)c3)ncc2-c2cncc(C(F)(F)F)c2)c1` [Compound 56, N-(4-fluoro-3-((2-((1-methyl-1H-pyrazol-4-yl)amino)-5-(5-(trifluoromethyl)pyridin-3-yl)pyrimidin-4-yl)amino)phenyl)acrylamide], the results for the GI50 in experiment [3] and in experiment [5] were 41 nM and 92 nM, respectively. In addition, the IC50 in experiment [4] (setting [6]) was 0.034 µM.
Turning to `C=CC(=O)Nc1ccc(F)c(Nc2nc(Nc3cnn(C)c3)ncc2-c2ccc(C)nc2)c1` [Compound 66, N-(4-fluoro-3-((2-((1-methyl-1H-pyrazol-4-yl)amino)-5-(6-methylpyridin-3-yl)pyrimidin-4-yl)amino)phenyl)acrylamide], the values for the GI50 in experiment [1], in experiment [3] and in experiment [5] were 35 nM, 73 nM and 50 nM, respectively. In addition, the IC50 in experiment [4] (setting [6]) was 0.138 µM.
For `C=CC(=O)Nc1ccc(F)c(Nc2nc(Nc3cnn(C)c3)ncc2-c2cncc(Cl)c2)c1` [Compound 102, N-(3-((5-(5-chloropyridin-3-yl)-2-((1-methyl-1H-pyrazol-4-yl)amino)pyrimidin-4-yl)amino)-4-fluorophenyl)acrylamide], the GI50 in experiment [1] was 31 nM; in experiment [2], 0.035 µM; in experiment [3], 48 nM. Moreover, the IC50 in experiment [4] (setting [6]) came to 0.168 µM.
Consider `C=CC(=O)Nc1ccc(F)c(Nc2nc(Nc3cnn(C)c3)ncc2-c2cncc(C(F)F)c2)c1` [Compound 110, N-(3-((5-(5-(difluoromethyl)pyridin-3-yl)-2-((1-methyl-1H-pyrazol-4-yl)amino)pyrimidin-4-yl)amino)-4-fluorophenyl)acrylamide], for which the GI50 turned out to be 0.034 µM in experiment [2], 34 nM in experiment [3] and 30 nM in experiment [5]. Further, the IC50 in experiment [4] (setting [6]) is 0.309 µM.
As to `C=CC(=O)Nc1cccc(Nc2nc(Nc3cnn(C)c3)ncc2-c2ccc(OC)nc2)c1` [Compound 118, N-(3-((5-(6-methoxypyridin-3-yl)-2-((1-methyl-1H-pyrazol-4-yl)amino)pyrimidin-4-yl)amino)phenyl)acrylamide trifluoroacetate], the GI50 was 36 nM in experiment [1], 29 nM in experiment [3] and 57 nM in experiment [5]. For the same molecule, the IC50 in experiment [4] (setting [6]) was found to be 0.163 µM.
As to `C=CC(=O)Nc1ccc(F)c(Nc2nc(Nc3cnn(C)c3)ncc2-c2cccc(N(C)CCN(C)C)c2)c1` [Compound 125, N-(3-((5-(3-((2-(dimethylamino)ethyl)(methyl)amino)phenyl)-2-((1-methyl-1H-pyrazol-4-yl)amino)pyrimidin-4-yl)amino)-4-fluorophenyl)acrylamide], the GI50 in experiment [1] was greater than 10000 nM; in experiment [2] it was greater than 10 µM; in experiment [3] it was greater than 10000 nM. For the same molecule, the half-inhibitory concentration (IC50) in experiment [4] (setting [6]) was greater than 10 µM.
With `C=CC(=O)Nc1ccc(F)c(Nc2nc(Nc3cnn(C)c3)ncc2-c2ccc3nccn3c2)c1` [Compound 133, N-(4-fluoro-3-((5-(imidazo[1,2-a]pyridin-6-yl)-2-((1-methyl-1H-pyrazol-4-yl)amino)pyrimidin-4-yl)amino)phenyl)acrylamide trifluoroacetate], the GI50 in experiment [1] came to 388 nM; in experiment [2], 0.294 µM; in experiment [3] it was 323 nM. For the same molecule, the IC50 in experiment [4] (setting [6]) was determined as 0.158 µM.
Take `Cn1cc(Nc2ncc(-c3ccc(C(F)(F)F)cc3)c(Nc3cc(NC(=O)CCl)ccc3F)n2)cn1` [Compound 252, 2-chloro-N-[4-fluoro-3-({2-[(1-methyl-1H-pyrazol-4-yl)amino]-5-[4-(trifluoromethyl)phenyl]pyrimidin-4-yl}amino)phenyl]acetamide]: the GI50 came out at 5960 nM in experiment [1], 1.42 µM in experiment [2] and 2810 nM in experiment [3]. In addition, in experiment [4] (setting [7]), the IC50 was found to be 1.18 µM.
As for `C=CS(=O)(=O)Nc1ccc(F)c(Nc2nc(Nc3cnn(C)c3)ncc2-c2ccc(C(F)(F)F)cc2)c1` [Compound 253, N-[4-fluoro-3-({2-[(1-methyl-1H-pyrazol-4-yl)amino]-5-[4-(trifluoromethyl)phenyl]pyrimidin-4-yl}amino)phenyl] ethene-1-sulfonamide], the GI50 in experiment [1] is 8750 nM; in experiment [2] it was 8.45 µM; in experiment [3], greater than 10000 nM. Also, the IC50 in experiment [4] (setting [7]) came to 3.98 µM.

The record behind these values is patent US12686673B2 (Blueprint Medicines Corporation, priority 2020, dated 2026).
